The values below come from patent US7982042B2, “Thiozanthene derivatives as delta-opioid modulators” (priority 2003, dated 2011).

Like-named read-outs stand apart in the source and are kept apart here.

The target in assay [1] is T1, Rat brain delta opioid receptor (Rattus norvegicus, UniProt P33533).
T1 construct: from tissue; host or cells: rat brain
Briefly: Rat brain delta opioid receptor binding. The conditions noted are these: rDOR Ki.

Assay [2] deals with T2, Rat brain mu opioid receptor (Rattus norvegicus, UniProt P33535).
T2 construct: from tissue; host or cells: forebrain of male Sprague Dawley rats
Briefly: Rat brain mu opioid receptor binding assay ([3H]DAMGO).

For assay [3], the target named is T3, human delta opioid receptor (Homo sapiens, UniProt P41143).
T3 construct: purchased Receptor Biology, Inc. (Baltimore, Md.); host or cells: CHO cells expressing the human delta receptor (membranes)
Briefly: [35S]GTPγS binding assay in CHO-hδ cell membranes. The class given is biochemical. The following applies: hDOR GTPγS EC50, human delta opioid receptor GTPγS functional assay.

Assay [4] has as its target T4, delta opioid receptor (Mus musculus, UniProt P32300).
T4 construct: host or cells: NG108-15 cells (membranes, purchased)
Briefly: [35S]GTPγS binding assay in NG108-15 cell membrane. Format: biochemical. The following applies: DOR GTPγS EC50, delta opioid receptor GTPγS functional assay. As for the experimental part:
NG108-15 cell membranes were purchased from Applied Cell Sciences (Rockville, Md.). An 8 mg/mL portion of membrane protein was suspended in 10 mM TRIS-HC pH 7.2, 2 mM EDTA, 10% sucrose.
Membranes were maintained at 4-8° C. A 1 mL portion of membranes was added into 10 mL cold binding assay buffer. The assay buffer contained 50 mM Tris, pH 7.6, 5 mM MgCl2, 100 mM NaCl, 1 mM DTT and 1 mM EGTA. The membrane suspension was homogenized with a Polytron for 2 times and centrifuged at 3000 rpm for 10 min. The supernatent was then centrifuged at 18,000 rpm for 20 min. The pellet was saved in a tube and 10 ml assay buffer was added into the tube. The pellet and buffer were mixed with a Polytron.
The pellet membranes (75 μg/ml) were preincubated with SPA (10 mg/ml) at 25° C. for 45 min in the assay buffer. […] GTPγS in the same Tris buffer containing 100 μM GDP in total volume of 200 μl. Increasing concentrations of receptor agonists were used to stimulate [^35S] GTPγS binding. The basal binding was tested in the absent agonists and no specific binding was tested in the present 10 μM unlabeled GTPγS. The data were analyzed on a Top counter.
% of Basal=(stimulate−non specific)*100/(basal−non specific). EC50 values are calculated using a Prism program.

Assay [5] has as its target T5, human mu opioid receptor (Homo sapiens, UniProt P35372).
T5 construct: purchased Receptor Biology, Inc. (Baltimore, Md.); host or cells: CHO cells expressing the human mu receptor (membranes)
Briefly: [35S]GTPγS binding assay in CHO-hμ cell membranes. The class given is biochemical. The conditions noted are these: inhibition relative to 1 uM DAMGO, read-out: hMOR GTPγS % I @10 μM. As for the experimental part:
CHO-hμ cell membranes are purchased from Receptor Biology, Inc. (Baltimore, Md.). About 10 mg/ml of membrane protein is suspended in 10 mM TRIS-HC pH 7.2, 2 mM EDTA, 10% sucrose.
Membranes are maintained at 4-8° C. 1 ml of membranes is added into 15 ml cold binding assay buffer. The assay buffer contains 50 mM HEPES, pH 7.6, 5 mM MgCl2, 100 mM NaCl, 1 mM DTT and 1 mM EDTA. The membrane suspension is homogenized with a Polytron 2 times and centrifuged at 3000 rpm for 10 min. The supernatant is then centrifuged at 18,000 rpm for 20 min. The pellet is saved in a tube and 10 ml assay buffer is added to the tube. The pellet and buffer are mixed with a Polytron.
The pellet membranes (20 μg/ml) are preincubated with SPA (10 mg/ml) at 25 C′ for 45 min in the assay buffer. The SPA (5 mg/ml) coupled with membranes (10 μg/ml) is then incubated with 0.5 nM [^35S]GTPgS in the same HEPES buffer containing 50 μM GDP in total volume of 200 μl. Increasing concentrations of receptor agonists are used to stimulate [^35S]GTPgS binding. The basal binding is tested in the absence of agonists and non-specific binding is tested in the present 10 μM unlabeled GTPγS. The data are analyzed on a Top counter.
% of Basal=(stimulate−non-specific)*100/(basal−non specific). % inhibition value values are calculated using a formula, % Inhibition=(% Basal of 1 uM DAMGO−% Basal of compound)*100/(% Basal of 1 uM DAMGO−100)

Assay [6] relates to mice. As to the kind of experiment: Mouse Abdominal Irritant Test (MAIT). The class given is in vivo. The conditions noted are these: @ 30 (dose printed in the cell). As for the experimental part:
The procedure used was that described by Collier et al. (1968), with minor modifications. Thirty minutes after the administration of test drug, the animals received an i.p. injection of 5.5 mg/kg of acetylcholine bromide. The mice were then placed into large glass animal jars and were continuously observed for the first occurrence of a characteristic behavioral response (twisting and elongation of the body which extends throughout the hindlimbs) within the specified observation period of 10 minutes. […] Data % of Basal=(stimulate−non-specific)*100/(basal−non-specific). EC50 value values are calculated using a Prism program.

T2 sequence (P33535 whole entry): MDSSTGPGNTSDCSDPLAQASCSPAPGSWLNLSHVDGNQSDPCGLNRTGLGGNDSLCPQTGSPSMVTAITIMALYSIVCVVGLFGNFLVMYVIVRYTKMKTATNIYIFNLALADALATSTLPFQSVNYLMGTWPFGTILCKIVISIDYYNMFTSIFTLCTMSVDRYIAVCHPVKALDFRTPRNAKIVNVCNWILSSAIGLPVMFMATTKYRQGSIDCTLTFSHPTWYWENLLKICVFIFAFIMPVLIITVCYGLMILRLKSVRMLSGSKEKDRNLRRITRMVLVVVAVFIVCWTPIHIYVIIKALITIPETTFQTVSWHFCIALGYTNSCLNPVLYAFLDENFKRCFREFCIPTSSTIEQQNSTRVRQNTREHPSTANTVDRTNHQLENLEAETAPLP
T3 sequence (P41143 whole entry): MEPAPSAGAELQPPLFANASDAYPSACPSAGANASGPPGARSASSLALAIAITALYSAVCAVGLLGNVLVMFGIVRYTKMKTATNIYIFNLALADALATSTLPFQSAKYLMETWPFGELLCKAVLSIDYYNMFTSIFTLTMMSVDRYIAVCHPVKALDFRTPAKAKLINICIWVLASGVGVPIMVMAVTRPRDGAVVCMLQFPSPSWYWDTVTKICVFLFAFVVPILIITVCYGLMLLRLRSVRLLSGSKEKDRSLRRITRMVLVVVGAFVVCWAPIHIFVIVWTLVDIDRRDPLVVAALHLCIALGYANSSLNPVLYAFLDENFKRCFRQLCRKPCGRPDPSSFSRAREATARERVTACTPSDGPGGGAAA
T1 sequence (P33533 whole entry): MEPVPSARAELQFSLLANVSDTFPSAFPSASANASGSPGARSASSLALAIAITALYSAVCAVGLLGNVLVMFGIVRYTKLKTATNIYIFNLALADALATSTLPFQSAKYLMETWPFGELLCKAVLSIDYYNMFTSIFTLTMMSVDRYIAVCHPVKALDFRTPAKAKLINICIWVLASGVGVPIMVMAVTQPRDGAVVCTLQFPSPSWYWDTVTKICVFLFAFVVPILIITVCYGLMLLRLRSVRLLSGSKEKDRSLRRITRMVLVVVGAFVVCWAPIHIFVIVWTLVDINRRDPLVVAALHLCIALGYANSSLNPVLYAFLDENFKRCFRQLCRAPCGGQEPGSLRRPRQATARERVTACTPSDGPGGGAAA
T4 sequence (P32300 whole entry): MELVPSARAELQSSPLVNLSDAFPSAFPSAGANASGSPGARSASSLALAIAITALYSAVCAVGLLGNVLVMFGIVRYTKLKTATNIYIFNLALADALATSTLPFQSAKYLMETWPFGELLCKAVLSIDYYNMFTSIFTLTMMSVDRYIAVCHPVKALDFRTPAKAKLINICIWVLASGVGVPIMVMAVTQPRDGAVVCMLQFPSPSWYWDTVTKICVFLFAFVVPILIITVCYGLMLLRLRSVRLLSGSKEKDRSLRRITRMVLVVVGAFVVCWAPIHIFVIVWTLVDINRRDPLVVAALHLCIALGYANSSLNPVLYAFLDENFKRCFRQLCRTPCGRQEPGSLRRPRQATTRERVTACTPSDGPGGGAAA
T5 sequence (P35372 whole entry): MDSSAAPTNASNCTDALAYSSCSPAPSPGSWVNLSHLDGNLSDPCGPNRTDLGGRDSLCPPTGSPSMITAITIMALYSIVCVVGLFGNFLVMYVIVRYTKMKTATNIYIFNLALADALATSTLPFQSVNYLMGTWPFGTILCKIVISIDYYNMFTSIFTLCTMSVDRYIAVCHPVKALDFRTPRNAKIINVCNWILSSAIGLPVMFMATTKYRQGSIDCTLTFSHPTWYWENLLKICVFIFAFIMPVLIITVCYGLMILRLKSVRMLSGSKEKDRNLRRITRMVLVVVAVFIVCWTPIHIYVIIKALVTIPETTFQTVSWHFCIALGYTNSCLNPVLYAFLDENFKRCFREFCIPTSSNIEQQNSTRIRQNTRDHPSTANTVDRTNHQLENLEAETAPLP

In the case of `CCN(CC)C(=O)c1ccc2c(c1)Oc1ccccc1C2=C1CC2CCC(C1)N2` (single isomer, unassigned) [Compound 52, 9-(8-Aza-bicyclo[3.2.1]oct-3-ylidene)-9H-xanthene-3-carboxylic acid diethylamide], the Ki in assay [1] is 0.61 nM; in assay [2] (rMOR Ki) it was more than 100 nM. For the same compound, the 50% effective concentration (EC50) was found to be 4.44 nM in assay [3] and 66 nM in assay [4].

As to `CCN(CC)C(=O)c1ccc2c(c1)Oc1ccccc1C2=C1CC2CCC(C1)N2` (single isomer, unassigned) [Compound 53, 9-(8-Aza-bicyclo[3.2.1]oct-3-ylidene)-9H-xanthene-3-carboxylic acid diethylamide], the Ki in assay [1] was 50.1 nM; in assay [2] (read-out: rMOR Ki) it was more than 100 nM. Moreover, the results for the EC50 in assay [3] and in assay [4] were 257 nM and 2060 nM, respectively.

Consider `CCN(CC)C(=O)c1ccc2c(c1)Oc1ccccc1C2=C1CC2CCC(C1)N2Cc1ccoc1` [Compound 25, 9-(8-Furan-3-ylmethyl-8-aza-bicyclo[3.2.1]oct-3-ylidene)-9H-xanthene-3-carboxylic acid diethylamide], for which the values for the inhibition constant Ki in assay [1] and in assay [2] (rMOR Ki) were 0.01 nM and 879 nM, respectively. In assay [3], the EC50 worked out at 1.39 nM. Further, in assay [5], the inhibition at 10 µM worked out at 74%. For the same compound, the “MAIT % I” value in assay [6] is 30(@ 30) %.

Regarding `CCN(CC)C(=O)c1ccc2c(c1)Oc1c(cccc1-c1ccoc1)C2=C1CC2CCC(C1)N2` [Compound 97, 9-(8-Aza-bicyclo[3.2.1]oct-3-ylidene)-5-furan-3-yl-9H-xanthene-3-carboxylic acid diethylamide], the Ki in assay [1] is 1.78 nM; in assay [2] (rMOR Ki), 1810 nM. In addition, the response in assay [4] was half-maximal at 13.3 nM (EC50).

`CCN(CC)C(=O)c1ccc2c(c1)Oc1c(cccc1-c1ccsc1)C2=C1CC2CCC(C1)N2` [Compound 99, 9-(8-Aza-bicyclo[3.2.1]oct-3-ylidene)-5-thiophen-3-yl-9H-xanthene-3-carboxylic acid diethylamide]: the Ki was 19.3 nM in assay [1] and 3490 nM in assay [2] (rMOR Ki). The same compound yielded an EC50 in assay [4] of 12.5 nM.

On to `CCN(CC)C(=O)c1ccc2c(c1)Oc1c(O)cccc1C2=C1CC2CCC(C1)N2` [Compound 100, 9-(8-Aza-bicyclo[3.2.1]oct-3-ylidene)-5-hydroxy-9H-xanthene-3-carboxylic acid diethylamide], for which the values for the Ki in assay [1] and in assay [2] (rMOR Ki) were 0.274 nM and 5.85 nM, respectively. The same compound came in with an EC50 in assay [4] of 0.452 nM.

Consider `CCN(CC)C(=O)c1ccc2c(c1)Oc1c(cccc1-c1cccnc1)C2=C1CC2CCC(C1)N2` [Compound 101, 9-(8-Aza-bicyclo[3.2.1]oct-3-ylidene)-5-pyridin-3-yl-9H-xanthene-3-carboxylic acid diethylamide], for which the inhibitory constant (Ki) came out at 9.14 nM in assay [1] and 532 nM in assay [2] (rMOR Ki). This compound had an EC50 in assay [4] of 19.3 nM.
